Paper PMC2790855, “BU-32: a novel proteasome inhibitor for breast cancer” (2009)

Molecular target: T1, 20S proteasome caspase-like activity (β1-subunit) (Homo sapiens, UniProt P28072)
T1 construct: gene PSMB6; with 20S proteasome
T1 sequence (P28072 35-239): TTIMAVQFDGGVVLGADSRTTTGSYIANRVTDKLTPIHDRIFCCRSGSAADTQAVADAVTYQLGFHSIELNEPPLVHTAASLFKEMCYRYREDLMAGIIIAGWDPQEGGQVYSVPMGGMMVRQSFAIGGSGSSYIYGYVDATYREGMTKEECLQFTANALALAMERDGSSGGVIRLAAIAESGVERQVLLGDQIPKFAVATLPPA
Experiment: Proteasome-Glo caspase-like assay in MDA-MB-231, MCF7 and SKBR3 cells treated […] h with […]; reference inhibitor
Assay type: cell-based

## CC(C)C[C@H](NC(=O)[C@H](Cc1ccccc1)NC(=O)c1cnccn1)B(O)O [Bortezomib]
  Proteasome-Glo caspase-like assay in MDA-MB-231, MCF7 and SKBR3 cells treated 24: analyzed for the inhibition of chymotryptic-like, caspase-like, and tryptic-like intracellular proteasome activities
